Patent publication US20030050237A1, “Prolonged delivery of peptides” (Scios Inc., priority 1993, published 2003)

Test: Insulinotropin infusion, plasma glucose levels in patients with NIDDM
Assay type: in vivo
Settings: raising peptide around meal time alone, for periods of up to one hour

Substance: His-Asp-Glu-Phe-Glu-Arg-His-Ala-Glu-Gly-Thr-Phe-Thr-Ser-Asp-Val-Ser-Ser-Tyr-Leu-Glu-Gly-Gln-Ala-Ala-Lys-Glu-Phe-Ile-Ala-Trp-Leu-Val-Lys-Gly-Arg-Gly [GLP-1]
- glycemic control: will not adequately control the glucose levels
